{"source": "paper PMC9169222", "about": "“Impedance-Based Phenotypic Readout of Transporter Function: A Case for Glutamate Transporters” (Frontiers in Pharmacology, 2022)", "key": {"EAAT1-3": {"system": "EAAT1-3", "details": "read-out: Steady-state affinities (Km), ref Arriza et al., 1994, Tzingounis and Wadiche, 2007; cited from earlier work"}, "[1]": {"target": "EAAT1 (endogenous, MDA-MB-468 cells) (Homo sapiens, UniProt P43003)", "sequence (P43003 whole entry)": "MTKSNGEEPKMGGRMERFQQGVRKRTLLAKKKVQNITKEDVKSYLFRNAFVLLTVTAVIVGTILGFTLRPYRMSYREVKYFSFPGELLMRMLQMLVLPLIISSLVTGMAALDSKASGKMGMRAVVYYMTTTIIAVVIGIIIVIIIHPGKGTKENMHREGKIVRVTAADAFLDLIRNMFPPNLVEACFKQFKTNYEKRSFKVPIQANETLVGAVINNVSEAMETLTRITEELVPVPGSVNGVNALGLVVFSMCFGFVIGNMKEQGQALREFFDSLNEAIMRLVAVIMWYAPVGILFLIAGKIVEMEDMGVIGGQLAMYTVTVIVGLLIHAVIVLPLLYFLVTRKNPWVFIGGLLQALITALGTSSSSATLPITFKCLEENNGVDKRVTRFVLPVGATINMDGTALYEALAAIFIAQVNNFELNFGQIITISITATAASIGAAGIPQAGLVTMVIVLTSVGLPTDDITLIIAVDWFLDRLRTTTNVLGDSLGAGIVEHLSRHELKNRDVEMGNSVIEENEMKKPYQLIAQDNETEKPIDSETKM", "assay": "Impedance-based phenotypic assay on MDA-MB-468 cells", "type": "cell-based", "method": "MDA-MB-468 cells were cultured as adherent cells in DMEM containing 10% (v/v) FCS, 2 mM Glutamax, 100 IU/ml penicillin and 100 μg/ml streptomycin (culture medium) at 37°C and 5% CO2. Cells were split twice weekly at 1:3–1:4 ratios in 10 cm culture dishes.\nIn short, cells are cultured in medium on gold-plated electrodes in microwell E-plates.\nAssays were performed at 37°C and 5% CO2 in 96-well PET E-plates in a total volume of 100 µl per well. Prior to cell seeding, the baseline impedance (Z0) was measured in the recording station in 40 µl (two compound additions) or 45 µl (one compound addition) medium in the presence (+) or absence (−) of 1 μg/ml dox. All compounds were diluted in phosphate-buffered saline (PBS) and added in 5 µl per addition using a VIAFLO 96 handheld electronic 96 channel pipette (INTEGRA Biosciences, Tokyo, Japan). When DMSO was used as a solvent for a compound, the final amount of DMSO was kept at 0.1% per well and was included in the vehicle (PBS/DMSO). All conditions were tested at two technical replicates per plate.\nExperimental data was recorded using RTCA Software v2.0 or v2.1.1 (ACEA Biosciences). In the RTCA Software CI values were normalized to the time point prior to substrate/agonist stimulation resulting in normalized Cell Index (nCI) values. The nCI data were exported and subsequent analyses and data visualizations were done using GraphPad Prism v9 (GraphPad Software, San Diego, CA, United States). In all experiments, nCI values of vehicle-only conditions were subtracted from all other conditions to correct for vehicle-induced, substrate-independent effects. […] The potency values of substrates and inhibitory potencies of EAAT inhibitors were determined by fitting the net AUC data to a sigmoidal concentration-effect curve with a variable slope."}, "[2]": {"target": "T1, EAAT2 (JumpIn-EAAT2 cells) (Homo sapiens, UniProt P43004)", "T1 construct": "expressed in transfected cells; host or cells: Jump In T-REx HEK 293", "T1 sequence (P43004 whole entry)": "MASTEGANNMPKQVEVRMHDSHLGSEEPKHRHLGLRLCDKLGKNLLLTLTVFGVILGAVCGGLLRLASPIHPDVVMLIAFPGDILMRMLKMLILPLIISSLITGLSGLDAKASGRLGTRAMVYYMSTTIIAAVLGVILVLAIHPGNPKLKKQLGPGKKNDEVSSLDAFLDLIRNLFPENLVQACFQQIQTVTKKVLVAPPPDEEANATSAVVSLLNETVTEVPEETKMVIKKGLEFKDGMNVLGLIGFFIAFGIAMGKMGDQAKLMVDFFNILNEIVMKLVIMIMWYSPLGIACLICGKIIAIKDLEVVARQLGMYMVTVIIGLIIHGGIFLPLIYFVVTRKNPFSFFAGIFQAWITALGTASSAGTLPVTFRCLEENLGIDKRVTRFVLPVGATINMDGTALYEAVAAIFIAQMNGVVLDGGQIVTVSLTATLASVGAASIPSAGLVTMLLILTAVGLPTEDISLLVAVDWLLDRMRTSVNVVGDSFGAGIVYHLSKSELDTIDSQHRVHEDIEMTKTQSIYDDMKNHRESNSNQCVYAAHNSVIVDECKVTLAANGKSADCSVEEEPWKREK", "assay": "Impedance-based phenotypic assay (xCELLigence) on JumpIn-EAAT2 cells", "type": "cell-based", "details": "net AUC 0–120 min, read-out: Substrate pEC50 ± SEM (converted)"}, "[3]": {"target": "T2, EAAT4 (JumpIn-EAAT4 cells) (Homo sapiens, UniProt P48664)", "T2 construct": "expressed in transfected cells; host or cells: Jump In T-REx HEK 293", "T2 sequence (P48664 1-564)": "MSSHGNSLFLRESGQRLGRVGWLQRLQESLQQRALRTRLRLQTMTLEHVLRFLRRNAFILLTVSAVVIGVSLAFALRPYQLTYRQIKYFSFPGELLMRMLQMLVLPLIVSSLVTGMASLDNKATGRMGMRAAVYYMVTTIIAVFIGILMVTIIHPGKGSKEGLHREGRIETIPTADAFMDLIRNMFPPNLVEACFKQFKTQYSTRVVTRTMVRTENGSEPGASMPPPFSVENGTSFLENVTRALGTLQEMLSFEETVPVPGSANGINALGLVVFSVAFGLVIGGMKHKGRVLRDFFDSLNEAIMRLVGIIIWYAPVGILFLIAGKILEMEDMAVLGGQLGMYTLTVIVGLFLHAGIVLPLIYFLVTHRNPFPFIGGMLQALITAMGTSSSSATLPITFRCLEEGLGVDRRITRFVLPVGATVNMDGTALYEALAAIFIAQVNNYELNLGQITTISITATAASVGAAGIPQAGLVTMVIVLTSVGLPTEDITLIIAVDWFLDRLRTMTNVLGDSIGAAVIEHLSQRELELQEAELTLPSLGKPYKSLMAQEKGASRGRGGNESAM", "assay": "Impedance-based phenotypic assay on JumpIn-EAAT4 cells", "type": "cell-based", "details": "JumpIn-EAAT4, 1 mM L-glu, p = 0.093", "method": "Label-free whole-cell assays, based on cell-induced changes in impedance, were performed using the xCELLigence real-time cell analyzer (RTCA) system (ACEA Biosciences, San Diego, CA, United States) as described previously ([Vlachodimou et al., 2019]; [Sijben et al., 2021a], [2021b]). In short, cells are cultured in medium on gold-plated electrodes in microwell E-plates. Per well impedance is continuously measured at 10 kHz and is converted to the unitless parameter Cell Index (CI) by the following formula: CI=(Zi−Z0)Ω/15Ω where Zi is the impedance at any given time point and Z0 is the baseline impedance measured at the start of each experiment ([Kho et al., 2015]).\nAssays were performed at 37°C and 5% CO2 in 96-well PET E-plates in a total volume of 100 µl per well. Prior to cell seeding, the baseline impedance (Z0) was measured in the recording station in 40 µl (two compound additions) or 45 µl (one compound addition) medium in the presence (+) or absence (−) of 1 μg/ml dox. […]\nOn the day of the experiment, JumpIn-EAAT cells grown to 70–80% confluence were trypsinized (0.25% trypsin in PBS/EDTA), counted and seeded in the E-plate in a volume of 50 μl at 60,000 cells/well. […] Cell growth was recorded overnight for 22 h. […] After stimulation the impedance was measured for at least 2 h. […]\nExperimental data was recorded using RTCA Software v2.0 or v2.1.1 (ACEA Biosciences). […]"}}, "note": "Structures can show the parent of a compound that is named as a salt. Where two headings read alike, the source gives them in different places. Marks after values point to notes of the source that are not given here.", "data": [{"smiles": "N[C@@H](CCC(=O)O)C(=O)O", "note": "[L-glutamate, L-glutamic acid monosodium salt monohydrate]", "values": [{"measurement": "Km", "setting": "EAAT1-3", "value": "~20", "unit": "µM"}, {"measurement": "Substrate pEC50 ± SEM", "setting": "[1]", "value": "4.0 ± 0.2 ^b"}, {"measurement": "EC50", "setting": "[2]; JumpIn-EAAT2, +dox", "value": 251, "unit": "µM"}, {"measurement": "EC50", "setting": "[2]; JumpIn-EAAT2, −dox", "value": 158, "unit": "µM"}, {"measurement": "Response in dox-induced vs non-induced cells", "setting": "[3]", "value": "not significant"}]}]}
